molecular target: T1, recombinant human 5-HT5A receptor (Homo sapiens, UniProt P47898); test: [3H]LSD radioligand binding assay; details: [3H]LSD (approximately 1 nM); membranes from transiently expressed 5-HT5A receptors in HEK-EBNA cells; Ki by Cheng-Prussoff equation
T1 construct: expressed in transfected cells; host or cells: HEK-EBNA (Human Embryonic Kidney-EBNA) cells, transient cDNA expression; membranes
Description: Compounds of the invention were tested for 5-HT5A activity in the following assay.
A [^3H]LSD radioligand binding assay was used to determine the affinity of the compounds for the recombinant human 5-HT5A receptor, in membranes from transiently (cDNA) expressed 5-HT5A receptors in Human Embryonic Kidney-EBNA (HEK-EBNA) cells. Assay buffer consisted of Tris (50 mM) buffer containing 1 mM EGTA, 10 mM MgCl2 (pH 7.4) and 10 μM pargyline. The binding assay was carried out in 96-well-plates in the presence of [^3H]LSD (approximately 1 nM), approximately 2 μg/well of membrane protein, and 0.5 mg of Ysi-poly-l-lysine SPA beads in a final volume of 200 μl of buffer. Non-specific binding was defined using methiothepin 2 μM. Compounds were tested at 10 concentrations. All assays were conducted in duplicate and repeated at least two times. Assay plates were incubated for 120 min at room temperature before centrifugation. Bound ligand was determined using a Packard Topcount scintillation counter. IC50 values were calculated using a non-linear curve fitting program and Ki values calated using the Cheng-Prussoff equation.

T1 sequence (P47898 whole entry): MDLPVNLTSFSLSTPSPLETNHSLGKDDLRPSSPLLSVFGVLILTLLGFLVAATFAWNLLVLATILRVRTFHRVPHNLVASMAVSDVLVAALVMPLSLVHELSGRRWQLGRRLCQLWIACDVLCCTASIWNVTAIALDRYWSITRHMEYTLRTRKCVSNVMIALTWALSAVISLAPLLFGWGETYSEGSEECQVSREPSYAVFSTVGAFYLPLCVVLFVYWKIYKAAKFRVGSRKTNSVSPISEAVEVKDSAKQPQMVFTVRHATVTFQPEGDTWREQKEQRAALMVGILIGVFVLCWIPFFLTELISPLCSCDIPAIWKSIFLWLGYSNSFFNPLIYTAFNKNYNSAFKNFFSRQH

Ki | Structure (SMILES)
19.9 nM | COc1ccccc1OCCNC1=Nc2ccc(F)cc2CN1 [Example 29, (6-Fluoro-3,4-dihydro-quinazolin-2-yl)-[2-(2-methoxy-phenoxy)-ethyl]-amine]
96 nM | Fc1cccc(OCCNC2=Nc3ccccc3CN2)c1 [Example 17, (3,4-Dihydro-quinazolin-2-yl)-[2-(3-fluoro-phenoxy)-ethyl]-amine]
100 nM | Clc1cccc(OCCNC2=Nc3ccccc3CN2)c1 [Example 18, [2-(3-Chloro-phenoxy)-ethyl]-(3,4-dihydro-quinazolin-2-yl)-amine]
89 nM | Fc1ccc(Br)c(OCCNC2=Nc3ccccc3CN2)c1 [Example 46, [2-(2-Bromo-5-fluoro-phenoxy)-ethyl]-(3,4-dihydro-quinazolin-2-yl)-amine]
25 nM | Cc1ccc2c(c1)CNC(NCCOc1ccccc1)=N2 [Example 4, (6-Methyl-3,4-dihydro-quinazolin-2-yl)-(2-phenoxy-ethyl)-amine]
30 nM | Fc1cccc2c1CNC(NCCOc1ccccc1)=N2 [Example 7, (5-Fluoro-3,4-dihydro-quinazolin-2-yl)-(2-phenoxy-ethyl)-amine hydroiodide]
64 nM | Cc1cccc(OCCNC2=Nc3ccccc3CN2)c1 [Example 12, (3,4-Dihydro-quinazolin-2-yl)-(2-m-tolyloxy-ethyl)-amine]
96 nM | COc1cccc(OCCNC2=Nc3ccccc3CN2)c1 [Example 16, (3,4-Dihydro-quinazolin-2-yl)-[2-(3-methoxy-phenoxy)-ethyl]-amine]
42 nM | c1ccc(OCCNC2=Nc3ccccc3CN2)cc1 [Example 5, (3,4-Dihydro-quinazolin-2-yl)-(2-phenoxy-ethyl)-amine hydroiodide]
18 nM | Fc1ccc2c(c1)CNC(NCCOc1ccccc1)=N2 [Example 2, (6-Fluoro-3,4-dihydro-quinazolin-2-yl)-(2-phenoxy-ethyl)-amine]
76 nM | COc1ccc2c(c1)CNC(NCCOc1ccccc1)=N2 [Example 15, (6-Methoxy-3,4-dihydro-quinazolin-2-yl)-(2-phenoxy-ethyl)-amine]

The remaining lines, values behind:

Structure (SMILES) | Ki
COc1cccc(OC)c1OCCNC1=Nc2ccccc2CN1 [Example 41, (3,4-Dihydro-quinazolin-2-yl)-[2-(2,6-dimethoxy-phenoxy)-ethyl]-amine] | 90.3 nM
COc1ccccc1OCCNC1=Nc2ccccc2CN1 [Example 1, (3,4-Dihydro-quinazolin-2-yl)-[2-(2-methoxy-phenoxy)-ethyl]-amine] | 7.5 nM
COc1ccccc1OCCNC1=Nc2cccc(F)c2CN1 [Example 67, (5-Fluoro-3,4-dihydro-quinazolin-2-yl)-[2-(2-methoxy-phenoxy)-ethyl]-amine] | 23.6 nM
Cc1cccc2c1CNC(NCCOc1ccccc1)=N2 [Example 10, (5-Methyl-3,4-dihydro-quinazolin-2-yl)-(2-phenoxy-ethyl)-amine hydroiodide] | 46 nM
Clc1ccc2c(c1Cl)CNC(NCCOc1ccccc1)=N2 [Example 14, (5,6-Dichloro-3,4-dihydro-quinazolin-2-yl)-(2-phenoxy-ethyl)-amine hydroiodide] | 76 nM
COc1ccc2c(c1)CNC(NCCOc1ccccc1OC)=N2 [Example 62, (6-Methoxy-3,4-dihydro-quinazolin-2-yl)-[2-(2-methoxy-phenoxy)-ethyl]-amine] | 53.6 nM
COc1ccccc1OCCNC1=Nc2ccc(C)cc2CN1 [Example 64, [2-(2-Methoxy-phenoxy)-ethyl]-(6-methyl-3,4-dihydro-quinazolin-2-yl)-amine] | 19.7 nM
Clc1ccccc1OCCNC1=Nc2ccccc2CN1 [Example 3, [2-(2-Chloro-phenoxy)-ethyl]-(3,4-dihydro-quinazolin-2-yl)-amine] | 19 nM
Fc1ccccc1OCCNC1=Nc2ccccc2CN1 [Example 6, (3,4-Dihydro-quinazolin-2-yl)-[2-(2-fluoro-phenoxy)-ethyl]-amine] | 34 nM
Cc1ccc2c(c1)CNC(NCCOc1ccccc1Cl)=N2 [Example 58, [2-(2-Chloro-phenoxy)-ethyl]-(6-methyl-3,4-dihydro-quinazolin-2-yl)-amine] | 53.8 nM
CSc1ccccc1OCCNC1=Nc2ccccc2CN1 [Example 35, (3,4-Dihydro-quinazolin-2-yl)-[2-(2-methylsulfanyl-phenoxy)-ethyl]-amine] | 35.7 nM
FC(F)(F)Oc1ccccc1OCCNC1=Nc2ccccc2CN1 [Example 13, (3,4-Dihydro-quinazolin-2-yl)-[2-(2-trifluoromethoxy-phenoxy)-ethyl]-amine] | 72 nM
N#Cc1ccccc1OCCNC1=Nc2ccccc2CN1 [Example 38, 2-[2-(3,4-Dihydro-quinazolin-2-ylamino)-ethoxy]-benzonitrile] | 54 nM
CC1NC(NCCOc2ccccc2)=Nc2ccccc21 (stereo not shown) [Example 11, (4-Methyl-3,4-dihydro-quinazolin-2-yl)-(2-phenoxy-ethyl)-amine hydroiodide] | 58 nM
CCOc1ccccc1OCCNC1=Nc2ccccc2CN1 [Example 8, (3,4-Dihydro-quinazolin-2-yl)-[2-(2-ethoxy-phenoxy)-ethyl]-amine] | 38 nM
C/C=C/c1ccccc1OCCNC1=Nc2ccccc2CN1 [Example 34, (3,4-Dihydro-quinazolin-2-yl)-[2-(2-propenyl-phenoxy)-ethyl]-amine] | 58.7 nM
COc1ccc2c(c1)CNC(NCCOc1ccccc1Cl)=N2 [Example 56, [2-(2-Chloro-phenoxy)-ethyl]-(6-methoxy-3,4-dihydro-quinazolin-2-yl)-amine] | 83.1 nM
COc1ccc(C)cc1OCCNC1=Nc2ccccc2CN1 [Example 44, (3,4-Dihydro-quinazolin-2-yl)-[2-(2-methoxy-5-methyl-phenoxy)-ethyl]-amine] | 82.5 nM
Brc1ccccc1OCCNC1=Nc2ccccc2CN1 [Example 37, [2-(2-Bromo-phenoxy)-ethyl]-(3,4-dihydro-quinazolin-2-yl)-amine] | 22.2 nM
Fc1cccc2c1CNC(NCCOc1ccccc1Cl)=N2 [Example 59, [2-(2-Chloro-phenoxy)-ethyl]-(5-fluoro-3,4-dihydro-quinazolin-2-yl)-amine] | 48.4 nM
c1ccc(COc2ccccc2OCCNC2=Nc3ccccc3CN2)cc1 [Example 39, [2-(2-Benzyloxy-phenoxy)-ethyl]-(3,4-dihydro-quinazolin-2-yl)-amine] | 86.7 nM
COc1cccc(F)c1OCCNC1=Nc2ccccc2CN1 [Example 45, (3,4-Dihydro-quinazolin-2-yl)-[2-(2-fluoro-6-methoxy-phenoxy)-ethyl]-amine] | 42.9 nM
Clc1cccc2c1CNC(NCCOc1ccccc1)=N2 [Example 9, (5-Chloro-3,4-dihydro-quinazolin-2-yl)-(2-phenoxy-ethyl)-amine hydroiodide] | 53 nM

From patent US7781441B2, “(3,4-dihydro-quinazolin-2-yl)-(2-aryloxy-ethyl)-amine” (Hoffmann-La Roche Inc., priority 2005, dated 2010)
